Assay results as given in patent US4418077A, “Fluorinated amino-butyric acid and diaminobutane derivatives” (Merrell Toraude et Compagnie, priority 1980, dated 1983).

How the values were obtained:
Format in all cases: in vivo
GABA-T = GABA-T activity in brain of mice after four daily i.p. doses; conditions: brain 24 hours after last dose
Protocol: (§1) A group of 10 male albino CD1 mice from Charles Riner, France, is given an i.p. injection of the test compound in aqueous solution daily for four consecutive days. Half of the animals are killed by decapitation 24 hours after the last dose fo the test compound. The other half of the animals are observed for up to 12 days for toxicity (as indicated by weight loss and deaths). Control animals receive an injection of the vehicle only.
(§2) The brains are removed from the dead mice and are divided into two portions by sagittal section. One half is used for the measurement of GABA-T activity while the other is used for measuring GABA content. The GABA-T activity is measured using known methods as described by M. Jung et al., J. Neurochem., 28, 717 (1977) and 29, 797 (1977), GABA content is measured by perchloric acid or trichloroacetic acid extracts using an amino acid analyzer equiped with a fluoresence detector.

mice = test: Toxicity in mice (weight loss and deaths), observed up to 12 days; conditions: i.p.
Protocol: as §1

[1] = as above; conditions: mouse, in vivo, ip, daily dose 1 mg/kg for 4 days, observed up to 12 days, read-out: Mortality (After Treatment)
Protocol: as §1

brain GABA = test: GABA content of brain of mice after four daily i.p. doses; conditions: brain 24 hours after last dose
Protocol: as §1, §2

[2] = daily dose 2.5 mg/kg for 4 days

SMILES: NC(CF)C(F)C(=O)O (stereo not drawn) [2,4-difluoro-3-amino-butyric acid, 2,4-DIFLUORO-3-AMINO-BUTYRIC ACID]
- GABA-T Inhibition (%) (GABA-T; daily dose 1 mg/kg for 4 days): 50%
- GABA-T Inhibition (%) (GABA-T; [2]): 83%
- GABA-T Inhibition (%) (GABA-T; daily dose 5 mg/kg for 4 days): 87%
- Weight Loss % (mice; daily dose 1 mg/kg for 4 days): 0%
- Weight Loss % (mice; [2]): -5%
- Mortality (After Treatment) (mice; daily dose 2.5 mg/kg for 4 days, deaths by day 6): 2/5
- Weight Loss % (mice; daily dose 5 mg/kg for 4 days): -25%
- Mortality (After Treatment) (mice; daily dose 5 mg/kg for 4 days, deaths by day 7): 5/5
- mortality at 288 h [1]: 0%
- GABA Elevation (%) (brain GABA; daily dose 1 mg/kg for 4 days): 150%
- GABA Elevation (%) (brain GABA; [2]): 225%
- GABA Elevation (%) (brain GABA; daily dose 5 mg/kg for 4 days): 250%
